This is an account of results in ChEMBL document CHEMBL1133442, “Symmetrical bis(heteroarylmethoxyphenyl)alkylcarboxylic acids as inhibitors of leukotriene biosynthesis” (J Med Chem, 2000).

A word on the IC50: it is the point on the concentration scale where inhibition reaches its midpoint. Broadly, the inhibition in vivo is the percentage by which the read-out fell short of the control. Lower therefore signals little suppression. Broadly, the ED50 is the dose at which the effect has come halfway, by size or by number of responders. Read a low ED50 as an effect at a small dose. What is called inhibition is the relative decrease from the control value, in per cent. Usually Inhibition stands for the change of the read-out against control, counted positive when it falls.

Holding throughout (assay type): functional
The species entered for assay [1] is Homo sapiens. The assay can be described thus: Inhibition of calcium ionophore (A-23187) stimulated leukotriene B4 (LTB4) formation in human neutrophils at 390 nM.
In assay [2] the test system is Rattus norvegicus. The assay can be described thus: Inhibition of leukotriene production in an ionophore-induced rat pleurisy model at 3 mg/kg. The settings on record: for inhibition in vivo at 3 mg/kg: Rattus norvegicus.
Assay [3] has as its system Rattus norvegicus. The assay can be described thus: In vivo inhibition evaluation of leukotriene inhibition in an ionophore-induced rat pleurisy at 3 mg/kg.
The species entered for assay [4] is Homo sapiens. The assay is described as follows: Inhibition of calcium ionophore (A-23187) -stimulated leukotriene B4 (LTB4) formation in human neutrophils at 390 nM.

SMILES strings stand for the structures.

As to `CC(CCCO/N=C/C(=O)O)(c1ccc(OCc2ccc3ccccc3n2)cc1)c1ccc(OCc2ccc3ccccc3n2)cc1`, the IC50 in assay [1] (Homo sapiens) was determined as 30 nM. The same compound gave an inhibition in vivo at 3 mg/kg in assay [2] of 0%.
For `O=C(O)CON=C1CCC(c2ccc(OCc3ccc4ccccc4n3)cc2)(c2ccc(OCc3ccc4ccccc4n3)cc2)CC1` the same measures were 65 nM and 0%.
Consider `C/C(CCC(=O)O)=N\OC(c1ccc(OCc2ccc3ccccc3n2)cc1)c1ccc(OCc2ccc3ccccc3n2)cc1`, for which the half-maximal inhibitory concentration (IC50) in assay [1] (Homo sapiens) came to 50 nM. This compound registered an ED50 in assay [3] of 1 mg/kg.
Regarding `CC(CCC(=O)[O-])(c1ccc(OCc2ccc3ccccc3n2)cc1)c1ccc(OCc2ccc3ccccc3n2)cc1.[Na+]`, the IC50 in assay [1] amounted to 20 nM. Further, in assay [3], the ED50 turned out to be 3 mg/kg.
`CC(CCC(=O)O)(c1ccc(OCc2cnc3ccccc3n2)cc1)c1ccc(OCc2cnc3ccccc3n2)cc1`: in assay [4] (Homo sapiens), the inhibition at 0.39 µM amounted to 47%. The same compound displayed an inhibition in vivo at 3 mg/kg in assay [2] of 14%.
For `CC(SCC(=O)O)(c1ccc(OCc2ccc3ccccc3n2)cc1)c1ccc(OCc2ccc3ccccc3n2)cc1` the same measures were 62% and 0%.
With `C/C(=N\OC(c1ccc(OCc2ccc3ccccc3n2)cc1)c1ccc(OCc2ccc3ccccc3n2)cc1)C(=O)O`, the IC50 in assay [1] (Homo sapiens) is 21 nM. The 50% effect level in assay [3] (ED50) was put at a dose of 1.5 mg/kg.
For `CC(CC(c1ccc(OCc2ccc3ccccc3n2)cc1)c1ccc(OCc2ccc3ccccc3n2)cc1)C(=O)O` (stereo unspecified), the inhibition at 0.39 µM in assay [4] (Homo sapiens) was 82%. The Inhibition in assay [2] is 43%.
Consider `O=C(O)/C=N/OCC=C(c1ccc(OCc2ccc3ccccc3n2)cc1)c1ccc(OCc2ccc3ccccc3n2)cc1`, for which the inhibition at 0.39 µM in assay [4] (Homo sapiens) was found to be 100%. The same compound registered an inhibition in vivo at 3 mg/kg in assay [2] of 17%.
For `O=C(O)C#CC(O)(c1ccc(OCc2ccc3ccccc3n2)cc1)c1ccc(OCc2ccc3ccccc3n2)cc1` the same measures were 98% and 48%.
For the compound `CC(CCC(=O)O)(c1ccc(OCc2ccc3ccccc3n2)cc1)c1ccc(OCc2ccc3ccccc3n2)cc1`, in assay [1] (Homo sapiens), the IC50 is 23 nM. The compound further showed an ED50 in assay [3] of 1.5 mg/kg.
Regarding `CC(CCC(=O)O)(c1ccc(OCc2ccc3ccccc3c2)cc1)c1ccc(OCc2ccc3ccccc3n2)cc1` (stereo unspecified), the inhibition at 0.39 µM in assay [4] (Homo sapiens) amounted to 93%. The same compound came in with an inhibition in vivo at 3 mg/kg in assay [2] of 55%.
Take `CC(CCC(=O)O)(c1ccc(OCc2ccccn2)cc1)c1ccc(OCc2ccccn2)cc1`: the inhibition at 0.39 µM in assay [4] turned out to be 53%. The compound also returned an inhibition in vivo at 3 mg/kg in assay [3] of 0%.
As to `O=C(O)CSC(c1ccc(OCc2ccc3ccccc3n2)cc1)(c1ccc(OCc2ccc3ccccc3n2)cc1)c1cccs1`, in assay [1] (Homo sapiens), the IC50 was 11 nM. The compound also showed a median effective dose (ED50) in assay [3] of 1.1 mg/kg.
For the compound `C/C(=N\OCCC(C)(c1ccc(OCc2ccc3ccccc3n2)cc1)c1ccc(OCc2ccc3ccccc3n2)cc1)C(=O)O`, in assay [4] (Homo sapiens), the inhibition at 0.39 µM came out at 54%. The inhibition in vivo at 3 mg/kg in assay [2] was determined as 23%.
`Cn1c(COc2ccc(C(C)(CCC(=O)[O-])c3ccc(OCc4nc5ccccc5n4C)cc3)cc2)nc2ccccc21.[Na+]`: the Inhibition in assay [4] is 59%; in assay [2] it was 29%.
For `Cn1c(COc2ccc(C(C)(CCC(=O)O)c3ccc(OCc4nc5ccccc5n4C)cc3)cc2)nc2ccccc21` the same measures were 27% and 0%.
On to `OC(c1ccc(OCc2ccc3ccccc3n2)cc1)(c1ccc(OCc2ccc3ccccc3n2)cc1)c1cccs1`, for which the inhibition at 0.39 µM in assay [4] (Homo sapiens) came out at 87%. This compound displayed an inhibition in vivo at 3 mg/kg in assay [2] of 0%.
For `CC(CCC(=O)O)(c1ccc(OCc2ccc3ccccc3n2)cc1)c1ccc(OCc2nc3ccccc3s2)cc1` (stereo unspecified) the same measures were 95% and 35%.
With `OCC1CCC(c2ccc(OCc3ccc4ccccc4n3)cc2)(c2ccc(OCc3ccc4ccccc4n3)cc2)CC1`, the inhibition at 0.39 µM in assay [4] (Homo sapiens) was determined as 28%.
Regarding `O=C(O)/C=N/OC1CCC(c2ccc(OCc3ccc4ccccc4n3)cc2)(c2ccc(OCc3ccc4ccccc4n3)cc2)CC1`, the inhibition at 0.39 µM in assay [4] (Homo sapiens) worked out at 54%. The same compound returned an inhibition in vivo at 3 mg/kg in assay [2] of 15%.
